Patent US20240209456A1, “METHODS AND COMPOSITIONS RELATED TO CELL-CYCLE RNA's” (BETH ISRAEL DEACONESS MEDICAL CENTER, priority 2021, published 2024)
*1 amine or outer side, *2 acyl side, *3 side chain or, on linkers, in order; H or OH if unused. Where a SMILES comes first, the peptide text is derived from it. Bridges are numbered along the chain shown (N, C = ends). Roman numbers before positions name the chains, in order. [ ]: non-standard residue; d: D form. Actinocin(9to1) = Cc1c2oc3c(C)ccc(C(=O)[*:1])c3nc-2c(C(=O)[*:2])c(N)c1=O; NMeV = CN[C@H](C(=O)O)C(C)C; Sar = CNCC(=O)O

Columns and labels:
Format in all cases: cell-based, human
PU.1 SPEARs = test: qRT-PCR / strand-specific qRT-PCR of PU.1 SPEARs; conditions: HL-60, DRB and ActD, FIG. 10C
Method: (§1) Total RNA isolation was carried out and all RNA samples used in this study were treated with DNase I (10 U of DNase I per 3 μg of total RNA; 37° C. for one hour; in the presence of RNase inhibitor). After DNase I treatment, RNA samples were extracted with acidic phenol (pH 4.3) to eliminate any remaining traces of DNA. cDNA syntheses were performed with Random Primers (Invitrogen) or gene-specific primers with Transcriptor Reverse Transcriptase (Roche Applied Science) according to the manufacturer's recommendation. cDNA was purified with a High Pure PCR Product Purification Kit (Roche Applied Science).
Sybr green reaction was performed using iQ Sybr Green supermix (Biorad, Hercules, CA) using the following parameters: 95° C. (10 min), 40 cycles of 95° C. (15 s) and 60° C. (1 min) 72° C. (1 min). TaqMan analysis was performed using Hotstart Probe One-step qRT-PCR master mix (USB) at the following conditions: 50° C. (10 min.), 95° C. (2 min.), and then 40 cycles of 95° C. (15 sec.) and 60° C. (60 sec.). […]

MYB SPEARs = test: qRT-PCR of MYB SPEARs; conditions: HL-60, DRB and ActD, FIG. 10C
Method: as §1
(§2) Sybr green reaction was performed using iQ Sybr Green supermix (Biorad, Hercules, CA) using the following parameters: 95° C. (10 min), 40 cycles of 95° C. (15 s) and 60° C. (1 min) 72° C. (1 min). TaqMan analysis was performed using Hotstart Probe One-step qRT-PCR master mix (USB) at the following conditions: 50° C. (10 min.), 95° C. (2 min.), and then 40 cycles of 95° C. (15 sec.) and 60° C. (60 sec.).

H2A.Z = test: Western blot of total proteins, H2A.Z; conditions: HL-60, 2 hours treatment, FIG. 10A
Method: Whole-cell lysates from approximately 0.2×10^6 cells per each sample were separated on 12% SDS-PAGE gels and transferred to a nitrocellulose membrane. Immunoblots were stained overnight at 4° C. with the following primary antibodies: H2A.Z (1:2,000; Abcam ab4174), H2A.Z acetyl (K4+K7+K11) (1:2,000; Abcam ab18262) or TIP60 (1:1000; generous gift from Bruno Amati). All secondary horseradish peroxidase (HRP)-conjugated antibodies were diluted 1:5,000 and incubated for 1 hr at room temperature with TBST/5% BSA. Immuno-reactive proteins were detected using the Pierce® ECL system (Thermo Scientific #32106).

c-MYC SPEARs = test: qRT-PCR / strand-specific qRT-PCR of c-MYC SPEARs; conditions: for c-MYC SPEARs level upon transcription inhibitors: HL-60, DRB and ActD, FIG. 10C; for response of total c-MYC SPEARs: HL-60 released from double thymidine block, 2 hrs, MG149 200 μM, TH1834 500 μM
Method: as §1, §2
Primers used for strand-specific real-time RT PCR (Sybr): Reverse Transcriptase primer for c-MYC SPEARs: 5′-AACCGCATCCTTGTCCTGTGAGTA-3′ (SEQ ID NO: 1); PCR primers: Forward: 5′-ACAGGCAGACACATCTCAGGGCTA-3′ (SEQ ID NO: 2); Reverse: 5′-ATAGGGAGGAATGATAGAGGCATA-3′ (SEQ ID NO: 3); and Reverse Transcriptase primer for PU1 SPEARs: 5′-GGCTTTTGCTCTAACCCAAC-3′ (SEQ ID NO: 4); PCR primers: Forward: 5′-ACTATGCTGAAGACCCTACAC-3′ (SEQ ID NO: 5); Reverse: 5′-GCTCTAACCCAACAAATGCC-3′ (SEQ ID NO: 6).
Nascent RNA/DNA capture was performed using Click-iT Nascent RNA Capture Kit (ThermoFisher) according to the manufacturer's instructions with minor modifications. Briefly, 1. Labeling the cells with EU/EdU. 200 mM EU or 30 mM EdU stock solutions were added to the cells, to a final concentration 0.5 mM or 30 μM, respectively. 2. Incubation. The cells were incubated for 1 or 2 hours. 3. RNA/DNA isolation. The cells were harvested and the RNA/DNA were isolated and dissolved in 14 μL of H2O. 4. Biotinylation of RNA/DNA by Click reaction. Click-iT reaction cocktail (50 μL per reaction) was prepared accordingly to manufacturer's instructions: a mixture containing 1× Click-iT EU buffer; 2 mM CuSO4; 1 mM Biotin azide; 13.25 μL of the isolated RNA; 10 mM Click-iT reaction buffer additive 1; 12 mM Click-iT reaction buffer additive 2 was prepared. After adding each component, the reaction cocktail was gently mixed by vortexing. The addition of the Click-iT reaction buffer additive 1 stock initiates the click reaction between the EU-RNA/EdU-DNA and biotin azide. Afterwards the Click-iT® reaction buffer additive 2 is added and incubated for 30 minutes with gentle vortexing. 5. RNA/DNA precipitation. […]

Row | Compound | PU.1 SPEARs level upon transcription inhibitors (PU.1 SPEARs) | MYB SPEARs level upon transcription inhibitors (MYB SPEARs) | overall global content of H2A.Z (H2A.Z) | c-MYC SPEARs level upon transcription inhibitors (c-MYC SPEARs) | response of total c-MYC SPEARs (c-MYC SPEARs)
1 | Cc1c2oc3c(C)ccc(C(=O)N[C@@H]4C(=O)N[C@H](C(C)C)C(=O)N5CCC[C@H]5C(=O)N(C)CC(=O)N(C)[C@@H](C(C)C)C(=O)O[C@@H]4C)c3nc-2c(C(=O)N[C@@H]2C(=O)N[C@H](C(C)C)C(=O)N3CCC[C@H]3C(=O)N(C)CC(=O)N(C)[C@@H](C(C)C)C(=O)O[C@@H]2C)c(N)c1=O [ActD, Actinomycin D] (I: T[dV]P[Sar][NMeV] / II: T[dV]P[Sar][NMeV]; ester I:1-I:C, II:1-II:C; linker I:N-II:N via Actinocin(9to1)) | negatively affected | positively affected | not affected | negatively affected | 
2 | OC[C@H]1O[C@@H](n2cnc3cc(Cl)c(Cl)cc32)[C@H](O)[C@@H]1O [DRB, 5,6-Dichlorobenzimidazole 1-β-D-ribofuranoside] | negatively affected | positively affected | not affected | negatively affected | 
3 | CCCCCCCc1ccc(CCc2cccc(O)c2C(=O)O)cc1 [MG149] |  |  |  |  | not affected
4 | O=C(O)Cn1nnc(-c2ccc(CN(CCCCOc3ccc(CN4CCCC4)cc3)CCc3ccccc3)cc2)n1 [TH1834] |  |  |  |  | not affected
